Data on 1 compound can be found in US7018396B2, “Method of treating acne” (New England Medical Center Hospitals, Inc., priority 2001, dated 2006).

The structures appear in SMILES notation.

The test system of the series is sebaceous glands present in skin of the hamster ear. Description: Hamster ear model: topical uptake of ICG into sebaceous glands (white light and fluorescence micrographs). It counts as in vivo. The following applies: 24 hours, 810 nm illumination, 840 nm bandpass filter. As to the method: A chromophore is considered “selectively introduced” to sebaceous glands according to the invention if greater than or equal to about 90% of the chromophore remaining associated with the skin after removal of excess chromophore preparation from the skin surface is observed in sebaceous glands. The proportion of a particular chromophore localized to sebaceous glands from a particular chromophore preparation (e.g., chromophore in oil or chromophore in liposomes or lipid suspension) is determined using an appropriate animal model, such as the hamster ear model described herein. Hamsters are known to have sebaceous glands in their ears. These glands are typically on the order of 200 μm in diameter, making them somewhat larger than typical sebaceous glands in humans. Nonetheless, the hamster ear is a convenient and instructive model for human skin and sebaceous glands.
For example, the non-lipophilic chromophore indocyanine green was introduced to sebaceous glands present in skin of the hamster ear according to the following method. The lipid chromophore suspension was topically applied to hamster ears and allowed to travel into the pores and sebaceous glands for 24 hours. After this time, the hamsters were euthanized and their ears were examined for evidence of ICG in the sebaceous glands. […] ICG fluorescence (840 nm) is stimulated by irradiation with 810 nm light. […]

Turning to `CC1(C)C(/C=C/C=C/C=C/C=C2\N(CCCCS(=O)(=O)O)c3ccc4ccccc4c3C2(C)C)=[N+](CCCCS(=O)(=O)[O-])c2ccc3ccccc3c21` [indocyanine green], the “localization of chromophore in skin” value is listed as “present in the sebaceous glands but not in the tissue between the glands”.
